In the supplement of paper PMC10307832:

Assays:
Assay in all cases: relative viability (nuclei count vs DMSO), 5 days (fraction); higher = more cells survive
NCI-H1734 = system: NCI-H1734
How it was run: (§1)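 Each reported value is a median over duplicate plates. It expresses relative viability: treated-well nuclei count divided by vehicle-well nuclei count. Lung cancer cell lines in 1536-well plates were dosed by pin tool a day after seeding, alone with one drug or with a fixed anchor-drug dose plus five library-drug doses (not always all listed) in √10 steps, and nuclei were counted after 5 days.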

201T = system: 201T
How it was run: as §1

RERF-LC-KJ = system: RERF-LC-KJ
How it was run: as §1

PC-14 = system: PC-14
How it was run: as §1

HCC-44 = system: HCC-44
How it was run: as §1

NCI-H1993 = system: NCI-H1993
How it was run: as §1

NCI-H441 = system: NCI-H441
How it was run: as §1

EPLC-272H = system: EPLC-272H
How it was run: as §1

NCI-H2170 = system: NCI-H2170
How it was run: as §1

NCI-H520 = system: NCI-H520
How it was run: as §1

H3255 = system: H3255
How it was run: as §1

NCI-H1793 = system: NCI-H1793
How it was run: as §1

NCI-H2347 = system: NCI-H2347
How it was run: as §1

NCI-H3122 = system: NCI-H3122
How it was run: as §1

NCI-H2085 = system: NCI-H2085
How it was run: as §1

LOU-NH91 = system: LOU-NH91
How it was run: as §1

NCI-H2405 = system: NCI-H2405
How it was run: as §1

NCI-H647 = system: NCI-H647
How it was run: as §1

NCI-H2023 = system: NCI-H2023
How it was run: as §1

COR-L23 = system: COR-L23
How it was run: as §1

NCI-H1563 = system: NCI-H1563
How it was run: as §1

C=C1C(=O)O[C@@H](CCCCCCCC)[C@@H]1C(=O)O [C-75] + Cc1nc(NC(=O)N2CCC[C@H]2C(N)=O)sc1-c1ccnc(C(C)(C)C(F)(F)F)c1 [Alpelisib] (partner 2 µM)
relative viability (NCI-H1734; first compound 0.08 µM): 0.691
relative viability (NCI-H1734; first compound 0.253 µM): 0.609
relative viability (NCI-H1734; first compound 0.8 µM): 0.69
relative viability (NCI-H1734; first compound 2.53 µM): 0.447
relative viability (NCI-H1734; first compound 8 µM): 0.631
relative viability (201T; first compound 0.08 µM): 0.981
relative viability (201T; first compound 0.253 µM): 1.08
relative viability (201T; first compound 0.8 µM): 1.02
relative viability (201T; first compound 2.53 µM): 0.975
relative viability (201T; first compound 8 µM): 1.07
relative viability (RERF-LC-KJ; first compound 0.08 µM): 0.834
relative viability (RERF-LC-KJ; first compound 0.253 µM): 0.875
relative viability (RERF-LC-KJ; first compound 0.8 µM): 0.817
relative viability (RERF-LC-KJ; first compound 2.53 µM): 0.765
relative viability (RERF-LC-KJ; first compound 8 µM): 0.979
relative viability (PC-14; first compound 0.08 µM): 0.897
relative viability (PC-14; first compound 0.253 µM): 1.02
relative viability (PC-14; first compound 0.8 µM): 0.904
relative viability (PC-14; first compound 2.53 µM): 0.901
relative viability (PC-14; first compound 8 µM): 1.01
relative viability (HCC-44; first compound 0.08 µM): 0.742
relative viability (HCC-44; first compound 0.253 µM): 0.674
relative viability (HCC-44; first compound 0.8 µM): 0.719
relative viability (HCC-44; first compound 2.53 µM): 0.614
relative viability (HCC-44; first compound 8 µM): 0.719
relative viability (NCI-H1993; first compound 0.08 µM): 0.694
relative viability (NCI-H1993; first compound 0.253 µM): 0.738
relative viability (NCI-H1993; first compound 0.8 µM): 0.66
relative viability (NCI-H1993; first compound 2.53 µM): 0.637
relative viability (NCI-H1993; first compound 8 µM): 0.727
relative viability (NCI-H441; first compound 0.08 µM): 0.762
relative viability (NCI-H441; first compound 0.253 µM): 0.734
relative viability (NCI-H441; first compound 0.8 µM): 0.577
relative viability (NCI-H441; first compound 2.53 µM): 0.589
relative viability (NCI-H441; first compound 8 µM): 0.602
relative viability (EPLC-272H; first compound 0.08 µM): 0.95
relative viability (EPLC-272H; first compound 0.253 µM): 1.03
relative viability (EPLC-272H; first compound 0.8 µM): 0.873
relative viability (EPLC-272H; first compound 2.53 µM): 0.732
relative viability (EPLC-272H; first compound 8 µM): 0.862
relative viability (NCI-H2170; first compound 0.08 µM): 0.796
relative viability (NCI-H2170; first compound 0.253 µM): 0.779
relative viability (NCI-H2170; first compound 0.8 µM): 0.776
relative viability (NCI-H2170; first compound 2.53 µM): 0.741
relative viability (NCI-H2170; first compound 8 µM): 0.713
relative viability (NCI-H520; first compound 0.08 µM): 0.836
relative viability (NCI-H520; first compound 0.253 µM): 1.09
relative viability (NCI-H520; first compound 0.8 µM): 1.02
relative viability (NCI-H520; first compound 2.53 µM): 0.996
relative viability (NCI-H520; first compound 8 µM): 1.01
relative viability (H3255; first compound 0.08 µM): 0.615
relative viability (H3255; first compound 0.253 µM): 0.789
relative viability (H3255; first compound 0.8 µM): 0.638
relative viability (H3255; first compound 2.53 µM): 0.828
relative viability (H3255; first compound 8 µM): 0.78
relative viability (NCI-H1793; first compound 0.08 µM): 0.72
relative viability (NCI-H1793; first compound 0.253 µM): 0.723
relative viability (NCI-H1793; first compound 0.8 µM): 0.585
relative viability (NCI-H1793; first compound 2.53 µM): 0.708
relative viability (NCI-H1793; first compound 8 µM): 0.816
relative viability (NCI-H2347; first compound 0.08 µM): 1.01
relative viability (NCI-H2347; first compound 0.253 µM): 0.987
relative viability (NCI-H2347; first compound 0.8 µM): 1.12
relative viability (NCI-H2347; first compound 2.53 µM): 0.956
relative viability (NCI-H2347; first compound 8 µM): 1.09
relative viability (NCI-H3122; first compound 0.08 µM): 0.767
relative viability (NCI-H3122; first compound 0.253 µM): 0.922
relative viability (NCI-H3122; first compound 0.8 µM): 0.765
relative viability (NCI-H3122; first compound 8 µM): 0.801
relative viability (NCI-H2085; first compound 0.08 µM): 0.974
relative viability (NCI-H2085; first compound 0.253 µM): 1.1
relative viability (NCI-H2085; first compound 0.8 µM): 0.957
relative viability (NCI-H2085; first compound 2.53 µM): 0.89
relative viability (NCI-H2085; first compound 8 µM): 0.898
relative viability (LOU-NH91; first compound 0.08 µM): 0.771
relative viability (LOU-NH91; first compound 0.253 µM): 0.643
relative viability (LOU-NH91; first compound 0.8 µM): 0.719
relative viability (LOU-NH91; first compound 2.53 µM): 0.744
relative viability (LOU-NH91; first compound 8 µM): 0.723
relative viability (NCI-H2405; first compound 0.08 µM): 0.833
relative viability (NCI-H2405; first compound 0.253 µM): 0.481
relative viability (NCI-H2405; first compound 0.8 µM): 0.703
relative viability (NCI-H2405; first compound 2.53 µM): 0.884
relative viability (NCI-H2405; first compound 8 µM): 0.816
relative viability (NCI-H647; first compound 0.08 µM): 0.972
relative viability (NCI-H647; first compound 0.253 µM): 1.28
relative viability (NCI-H647; first compound 2.53 µM): 1
relative viability (NCI-H647; first compound 8 µM): 0.643
relative viability (NCI-H2023; first compound 0.08 µM): 0.637
relative viability (NCI-H2023; first compound 0.253 µM): 0.715
relative viability (NCI-H2023; first compound 0.8 µM): 0.592
relative viability (NCI-H2023; first compound 2.53 µM): 0.419
relative viability (NCI-H2023; first compound 8 µM): 0.543
relative viability (COR-L23; first compound 0.08 µM): 0.762
relative viability (COR-L23; first compound 0.253 µM): 1.02
relative viability (COR-L23; first compound 0.8 µM): 0.753
relative viability (COR-L23; first compound 2.53 µM): 0.741
relative viability (COR-L23; first compound 8 µM): 0.723
relative viability (NCI-H1563; first compound 0.08 µM): 0.939
relative viability (NCI-H1563; first compound 0.253 µM): 0.969
relative viability (NCI-H1563; first compound 0.8 µM): 0.886
relative viability (NCI-H1563; first compound 2.53 µM): 0.974
relative viability (NCI-H1563; first compound 8 µM): 0.901
